Data on two molecules can be found in PMC9940649, “Phytochemical Comparison of Medicinal Cannabis Extracts and Study of Their CYP-Mediated Interactions with Coumarinic Oral Anticoagulants” (Medical Cannabis and Cannabinoids, 2023).

SMILES strings stand for the structures. Read-outs that look alike come from different tables or passages of the source.

For series [1] the following is noted: at 0.5 mg/mL protein concentration; cited from earlier work.
The target in series [2] is T1, CYP2C9 (Homo sapiens, UniProt P11712). Briefly: in vitro. Particulars: both, microsomes, pH 7.4. The protocol: (§1) Briefly, 96-well incubation plates were prepared by adding inhibitors, substrates, and extracts (all dissolved in ethanol) to the respective wells. The 96-well plates were then placed on a thermoshaker (37°C, 500 rpm) until full evaporation of the solvent. […] HLM were thawed on ice, diluted in 100 mM phosphate buffer (pH 7.4) (final concentration 0.2 mg/mL), and added to the incubation plate that was prepared with the inhibitors and substrates. For preincubation, the plates were shaken at 500 rpm on an orbital shaker for 15 min at 37°C. […] The formation of hydroxylated metabolites was followed using UHPLC-MS/MS quantification with electrospray ionization in positive mode, as described in online supplementary material 2.
(§2) GraphPad Prism, version 9.0.1, was used for fitting of IC50 curves (inhibitor vs. normalized response, variable slope).

Series [3] deals with T1, CYP2C9. Briefly: in vitro. The following applies: both, microsomes, pH 7.4. The protocol: as §1, §2
This is another data set of the same source.

For series [4], the target named is T1, CYP2C9. The following applies: read-out: Literature Ki in pooled HLM; substrate warfarin; ref PMID 21356216; cited from earlier work.
In series [5] the target is T1, CYP2C9. Briefly: CYP inhibition assay in pooled HLM, specific substrate tolbutamide. The protocol: as §1, §2
Series [6] concerns the target T2, CYP3A4 (Homo sapiens, UniProt P08684). In words: CYP inhibition assay in pooled HLM, specific substrate testosterone. On the procedure:
as §1, §2

For series [7], the target named is T2, CYP3A4. The following applies: read-out: Literature IC50 in pooled HLM; substrate testosterone; ref PMID 32587099; cited from earlier work.

T1 sequence (P11712 whole entry): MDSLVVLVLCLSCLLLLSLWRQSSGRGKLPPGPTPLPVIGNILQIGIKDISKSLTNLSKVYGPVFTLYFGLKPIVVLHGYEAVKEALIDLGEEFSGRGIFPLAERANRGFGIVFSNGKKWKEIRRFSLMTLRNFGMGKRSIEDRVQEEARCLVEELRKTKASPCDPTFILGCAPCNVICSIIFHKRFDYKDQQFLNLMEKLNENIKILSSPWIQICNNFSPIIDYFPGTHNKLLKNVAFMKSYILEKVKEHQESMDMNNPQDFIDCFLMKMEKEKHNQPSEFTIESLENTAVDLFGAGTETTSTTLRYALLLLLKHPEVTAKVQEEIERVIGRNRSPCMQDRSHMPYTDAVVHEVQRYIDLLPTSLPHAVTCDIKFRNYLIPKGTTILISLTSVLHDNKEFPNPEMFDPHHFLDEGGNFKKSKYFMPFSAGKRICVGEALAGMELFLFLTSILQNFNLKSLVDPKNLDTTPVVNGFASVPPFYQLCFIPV
T2 sequence (P08684 2-503 limits assumed): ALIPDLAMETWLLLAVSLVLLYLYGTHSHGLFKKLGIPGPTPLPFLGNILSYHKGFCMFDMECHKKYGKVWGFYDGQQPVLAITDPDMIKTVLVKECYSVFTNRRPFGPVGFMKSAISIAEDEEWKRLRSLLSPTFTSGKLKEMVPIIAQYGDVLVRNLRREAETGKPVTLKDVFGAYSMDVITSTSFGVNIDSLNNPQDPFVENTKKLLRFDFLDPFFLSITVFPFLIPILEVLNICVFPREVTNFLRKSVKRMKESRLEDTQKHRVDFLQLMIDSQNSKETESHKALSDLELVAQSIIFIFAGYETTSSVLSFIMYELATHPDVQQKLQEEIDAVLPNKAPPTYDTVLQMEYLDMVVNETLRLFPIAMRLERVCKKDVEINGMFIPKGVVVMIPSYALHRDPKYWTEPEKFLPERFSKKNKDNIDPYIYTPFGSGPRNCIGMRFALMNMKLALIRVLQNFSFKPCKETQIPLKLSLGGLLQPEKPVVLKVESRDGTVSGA

For the molecule `C=C(C)[C@@H]1CCC(C)=C[C@H]1c1c(O)cc(CCCCC)cc1O` [CBD (pure), cannabidiol], in series [1], the fraction unbound was 0.12. Moreover, the IC50 at 15 min in series [2] was 47 µM; in series [3] it was over 100 µM.

Regarding `CCCCCc1cc(O)c2c(c1)OC(C)(C)[C@@H]1CCC(C)=C[C@@H]21` [THC (pure), Δ9-tetrahydrocannabinol], the inhibition constant (Ki) in series [4] was 1.5 µM. Moreover, the unbound share (fraction unbound) in series [1] is 0.05. The values for the IC50 at 15 min in series [2] and in series [3] were 6.9 µM and 73.3 µM, respectively. Moreover, the values for the 50% inhibitory concentration (IC50) in series [5], in series [6] and in series [7] were 0.081 µM, 23.6 µM and 26.1 ± 6.78 µM, respectively.
